According to patent US11161830B2, “4-pyridone compound or salt thereof, and pharmaceutical composition and formulation including same” (priority 2017, dated 2021):
Where two headings read alike, the source gives them in different places.

System: HBV (genotype CAT)
Assay: Test Example 2-2: anti-HBV assay in PXB-cells (fresh human hepatocytes)
Assay type: cell-based
Settings: Hepatitis B virus, Hepatocyte
Procedure: Using fresh human hepatocytes (PXB-cells, manufactured by PhenixBio Co., Ltd.) collected from a PXB mouse (a chimeric mouse with human hepatocytes), the anti-HBV activity of the representative compounds was evaluated in the following procedure.
The following was used as a medium:
DMEM (manufactured by Sigma)+0.25 μg/mL insulin (manufactured by Wako)+1% penicillin/streptomycin. (manufactured by Sigma)+20 mmol/L HEPES (manufactured by Sigma)+15 μg/mL L-proline (manufactured by Sigma)+50 nmol/L dexamethasone (manufactured by Sigma)+5 ng/mL EGF (manufactured by Peprotech)+0.1 mmol/L ascorbic acid 2-phosphate (manufactured by Wako)+10% FBS+2% DMSO
Each of the test compounds) was further added to the medium to prepare a test solution containing each of the test compounds at various concentrations.
(1) PXB-cells seeded at a seeding density of 2.1×10^5 cells/cm^2 in a 96-well microliter plate were incubated in a 5% CO2 incubator at 37° C. until a day on which the cells were infected.
(2) A HBV (genotype CAT) prepared by transfecting an HBV plasmid into an HepG2 cell was suspended in the medium containing 4% PEG-8000, and added to the plate of (1) at about 30 copies/cell such that the PXB cells were infected (100 μL/well), and the plate was incubated in a 5% CO2 incubator at 37° C. for 1 day.
(3) The culture supernatant on day 1 post infection was removed and the cells were washed three times with DMEM containing 10% FBS and 1% penicillin/streptomycin. Then, the medium was added to the plate (100 μL/well) and the plate was incubated in a 5% CO2 incubator at 37° C. for 1 day.
(4) The culture supernatant on day 2 post infection was removed and the cells were washed three times with DMEM containing 10% FBS and 1% penicillin/streptomycin. Then, the medium was added to the plate (100 μL/well) and the plate was incubated in a 5% CO2 incubator at 37° C. for 5 days.
(5) The culture supernatant on day 7 post infection was removed, the medium was added to the plate (100 μL/well), and the plate was incubated in a 5% CO2 incubator at 37° C. for 5 days.
(6) The culture supernatant on day 12 post infection was removed, the medium was added to the plate (100 μL/well), and the plate was incubated in a 5% CO2 incubator at 37° C. for 5 days.
(§1) (7) The culture supernatant on day 17 post infection was removed, the test solution was added to the plate (100 μL/well), and the plate was incubated in a 5% CO2 incubator at 37° C. for 5 days. As a control without the compound added, the medium was added to the plate (100 μL/well) and the plate was incubated in a 5% CO2 incubator at 37° C. for 5 days.
as §1, with “(8)” for “(7)”, “22” for “17”
as §1, with “(9)” for “(7)”, “27” for “17”
(10) The culture supernatant on day 32 post infection was collected.
(11) The collected culture supernatant on day 32 post infection was treated with a mixture of Buffer AL (manufactured by QIAGEN) and Proteinase K (manufactured by Invitrogen). The amount of HBV-DNA in the obtained solution was absolutely quantified by a real-time PCR method. In addition, the amount of HBsAg in the culture supernatant was absolutely quantified by chemiluminescent enzyme immunoassay using Lumipulse (registered trademark) HBsAg-HQ (manufactured by Fujirebio Inc.). A relative viral load (%) with respect to a control without the compound added was each calculated. […]

[1] = read-out: IC50 HBV-DNA, PXB-cells infected with HBV genotype CAT, culture supernatant on day 32 post infection
[2] = read-out: IC50 HBsAg, PXB-cells infected with HBV genotype CAT, culture supernatant on day 32 post infection

Compound	IC50 [1]	IC50 [2]
CN(C)[C@H]1CCN(c2nc3ccc(-n4cc(C(=O)O)c(=O)cc4-c4ccc(N5CCCC5)cc4)cc3s2)C1 [Example 17-1, (S)-1-(2-(3-(dimethylamino)pyrrolidin-1-yl)benzo[d]thiazol-6-yl)-4-oxo-6-(4-(pyrrolidin-1-yl)phenyl)-1,4-dihydropyridine-3-carboxylic acid]	< 0.5 µM	< 0.5 µM
COCCO[C@@H]1CCN(c2ccc(-c3cc(=O)c(C(=O)O)cn3-c3ccc4nc(N5CCOCC5)sc4c3)cc2)C1 [Example 19-1, (R)-6-(4-(3-(2-methoxyethoxy)pyrrolidin-1-yl)phenyl)-1-(2-morpholinobenzo[d]thiazol-6-yl)-4-oxo-1,4-dihydropyridine-3-carboxylic acid]	< 0.5 µM	< 0.5 µM
CO[C@H]1CCN(c2nc3ccc(-n4cc(C(=O)O)c(=O)cc4-c4ccc(N5CCCC5)cc4)cc3s2)C1 [Example 17-3, (S)-1-(2-(3-methoxypyrrolidin-1-yl)benzo[d]thiazol-6-yl)-4-oxo-6-(4-(pyrrolidin-1-yl)phenyl)-1,4-dihydropyridine-3-carboxylic acid]	< 0.5 µM	< 0.5 µM
COC1CN(c2nc3ccc(-n4cc(C(=O)O)c(=O)cc4-c4ccc5c(c4)OC[C@@H]4CCCN54)cc3s2)C1 [Example 18-2, (S)-1-(2-(3-methoxyazetidin-1-yl)benzo[d]thiazol-6-yl)-4-oxo-6-(2,3,3a,4-tetrahydro-1H-benzo[b]pyrrolo[1,2-d][1,4]oxazin-7-yl)-1,4-dihydropyridine-3-carboxylic acid]	< 0.5 µM	< 0.5 µM
